Test results from PMC10050154, “Coenzyme A binding sites induce proximal acylation across protein families” (Scientific Reports, 2023).

How the values were obtained:
[1] = biological target: T1, enoyl-CoA hydratase short chain 1 (ECHS1) (Homo sapiens, UniProt P30084); assay: LC-MS/MS (DIA) of site-specific lysine succinylation, dose-response; format: biochemical
T1 construct: recombinant, purified from E. coli, purchased from Novus Biologicals; homohexamer
T1 sequence (P30084 28-290): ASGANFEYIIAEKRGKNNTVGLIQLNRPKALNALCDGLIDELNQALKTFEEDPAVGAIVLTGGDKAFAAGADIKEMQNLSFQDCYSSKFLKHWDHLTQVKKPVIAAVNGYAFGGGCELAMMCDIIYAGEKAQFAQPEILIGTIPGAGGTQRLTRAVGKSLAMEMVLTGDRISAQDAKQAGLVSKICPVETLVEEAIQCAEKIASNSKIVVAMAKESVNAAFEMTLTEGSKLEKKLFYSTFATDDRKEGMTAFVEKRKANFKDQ

[2] = biological target: T1, enoyl-CoA hydratase short chain 1 (ECHS1); assay: LC-MS/MS of lysine acetylation; format: binding; conditions: covalent (lysine acetylation at K282, K284, K204 near the CoA pocket)

CC(C)(COP(=O)(O)OP(=O)(O)OC[C@H]1O[C@@H](n2cnc3c(N)ncnc32)[C@H](O)[C@@H]1OP(=O)(O)O)[C@@H](O)C(=O)NCCC(=O)NCCS [CoA]
IC50 [1]: 0.331 to 1.92 mM

CC(=O)SCCNC(=O)CCNC(=O)[C@H](O)C(C)(C)COP(=O)(O)OP(=O)(O)OC[C@H]1O[C@@H](n2cnc3c(N)ncnc32)[C@H](O)[C@@H]1OP(=O)(O)O [acetyl-CoA]
LC-MS/MS of lysine acetylation [2]: in ECHS1 induced by acetyl-CoA incubation was inhibited by a 25-molar excess of CoA
